Assay results published in US20080033026A1, “Antimicrobial compositions, methods and systems” (priority 2006, published 2008).

Experiments:
Assay in all cases: Time-kill determination
Assay type in all cases: cell-based
[1] = tested on: Pseudomonas aeruginosa (ATCC 15442)
Description: (§1) The assessment of efficacy of 9-decenoic acid against a spectrum of microorganisms was determined using the American Society for Testing and Materials (ASTM) procedure entitled “Standard Test Method for the Assessment of Microbiocidal Activity of Test Materials Using a Time-Kill Procedure,” October 1998. This procedure incorporates the recommendations described in the “Manual of Clinical Microbiology,” 5th ed., edited by A. B. Balows et al., ASM, Washington, and is directed by the Federal Register, June 1994.
(§2) Challenge organisms were prepared as follows. Cultures of the following organisms were obtained: Staphylococcus aureus (ATCC 6538), Pseudomonas aeruginosa (ATCC 15442), Staphylococcus epidermidis (ATCC 12228), Klebsiella pneumoniae (ATCC 4352), Escherichia coli 0157:H7 (ATCC 43895) and Candida albicans (ATCC 10231). The stock cultures were transferred to sterile tubes and sterile tryptic soy broth (TSB) was added to the cultures. The mixture was incubated for 18-24 hours at 37° C. (±2° C.). A portion of this culture was then transferred onto TSA plates and incubated for 18-24 hours at 37° C. (±2° C.). The plates were removed from incubation and the bacterial growth was washed from the agar surface using Butterfield's Phosphate Buffered Dilution Water (PBDW).
(§3) The bacterial suspension was adjusted to contain approximately 10^8 Colony Forming Units (CFU) per ml with PBDW. The concentration was adjusted to an optical density (OD) of 0.4-0.5 (versus a PBDW blank) at 620 nm in a UV-Vis spectrophotometer, and this optical density gave approximately 10^8 colony forming units per milliliter (cfu/ml). The standardized suspension was stored under appropriate conditions until it was used as the challenge inoculum.
(§4) Concentrated 9-decenoic acid (97%) was diluted in filter sterilized isopropanol to yield a 25,000 ppm stock solution. Subsequent dilutions to the 9-decenoic acid stock solutions were made with sterile Deionized Water (DI) to achieve concentrations of 0.1%, 0.05%, 0.01% and 0.001%. The pH was determined for each dilution; pH values ranged from 4.4-4.1. Additionally, 9-decenoic acid stock solution was adjusted to pH 7 with 1 N NaOH and serially diluted with sterile DI to achieve concentrations of 1%, 0.5%, 0.2%, 0.1%, 0.05% and 0.0025%. In addition, 9-decenoic acid stock solution was combined with Triclosan™ (obtained from Ciba Specialty Chemical Corporation, under the tradename Irgasan DP 300™) in various ratios, as indicated in Table 8. The pH of the combined solution was 7.
(§5) Compliant with the ASTM procedure cited, for each challenge microorganism a 9.9 ml aliquot of the prepared 9-decenoic acid suspension was added to a sterile tube. A 0.1 ml aliquot of the standardized inoculum was added to the 9-decenoic acid solution representing the start of the test exposure. The inoculated 9-decenoic acid solution was immediately mixed thoroughly. The inoculated suspension was held at room temperature for 0.5, 2, 5, 7 and 10-minute exposure times for tests run at pH level of approximately 4. The pH 7 tests were held at room temperature for 0.5 and 2 minutes.
(§6) At each exposure sample time, a 1.0 ml aliquot of the inoculated 9-decenoic acid suspension was transferred to 9.0 ml of D/E Neutralizing Broth. Additional ten-fold serial dilutions were made in PBDW and plated in duplicate on TSA. All plates were incubated for 48 hours at 37° C. (±2° C.) and visually examined for growth. The plates were enumerated, recorded and log kill determined for each time point.
(§7) The following study controls were conducted: culture purity, neutralizer sterility, initial suspension population, test population, neutralization verification and a negative control using isopropanol. Culture purity was verified by performing a streak plate for isolated colonies of each culture used. All cultures were determined to be pure based on consistent colony morphology typical for the test organism. The neutralizer sterility was confirmed by no growth in an incubated sample. […]

[2] = tested on: Candida albicans (ATCC 10231)
Description: as §1, §2, §3, §4, §5, §6, §7

[3] = tested on: Klebsiella pneumoniae (ATCC 4352)
Description: as §1, §2, §3, §4, §5, §6, §7

[4] = tested on: Staphylococcus epidermidis (ATCC 12228)
Description: as §1, §2, §3, §4, §5, §6, §7

[5] = 0.01% 9-decenoic acid, pH 4.4, exposure 0.5 min
[6] = 0.01% 9-decenoic acid, pH 4.4, exposure 2 min
[7] = 0.01% 9-decenoic acid, pH 4.4, exposure 5 min
[8] = 0.01% 9-decenoic acid, pH 4.4, exposure 7 min
[9] = 0.01% 9-decenoic acid, pH 4.4, exposure 10 min
[10] = 0.05% 9-decenoic acid, pH 4.1, exposure 0.5 min
[11] = 0.05% 9-decenoic acid, pH 4.1, exposure 2 min
[12] = 0.05% 9-decenoic acid, pH 4.1, exposure 5 min
[13] = 0.05% 9-decenoic acid, pH 4.1, exposure 7 min
[14] = 0.05% 9-decenoic acid, pH 4.1, exposure 10 min
[15] = 0.1% 9-decenoic acid, pH 4.1, exposure 0.5 min
[16] = 0.1% 9-decenoic acid, pH 4.1, exposure 2 min
[17] = 0.1% 9-decenoic acid, pH 4.1, exposure 5 min
[18] = 0.1% 9-decenoic acid, pH 4.1, exposure 7 min
[19] = 0.1% 9-decenoic acid, pH 4.1, exposure 10 min

Compound C=CCCCCCCCC(=O)O [9-decenoic acid] has a Log reduction [1, 5] greater than 6.1 log, a Log reduction [1, 6] greater than 6.1 log and a Log reduction [1, 7] greater than 6.1 log. For the same compound, the Log reduction [1, 8] was greater than 6.1 log, the Log reduction [1, 9] was greater than 6.1 log and the Log reduction [1, 10] was greater than 6.1 log. The Log reduction [1, 11] was greater than 6.1 log, the Log reduction [1, 12] was greater than 6.1 log and the Log reduction [1, 13] was greater than 6.1 log. For the same compound, the Log reduction [1, 14] was greater than 6.1 log, the Log reduction [1, 15] was greater than 6.1 log and the Log reduction [1, 16] was greater than 6.1 log. It also gave a Log reduction [1, 17] greater than 6.1 log, a Log reduction [1, 18] greater than 6.1 log and a Log reduction [1, 19] greater than 6.1 log. For the same compound, the Log reduction [2, 5] was 1.0 log, the Log reduction [2, 6] was 2.9 log and the Log reduction [2, 7] was greater than 6.7 log. The Log reduction [2, 8] was greater than 6.7 log, the Log reduction [2, 9] was greater than 6.7 log and the Log reduction [2, 10] was greater than 6.7 log. It also gave a Log reduction [2, 11] greater than 6.7 log, a Log reduction [2, 12] greater than 6.7 log and a Log reduction [2, 13] greater than 6.7 log. It also gave a Log reduction [2, 14] greater than 6.7 log, a Log reduction [2, 15] greater than 6.7 log and a Log reduction [2, 16] greater than 6.7 log. The Log reduction [2, 17] was greater than 6.7 log, the Log reduction [2, 18] was greater than 6.7 log and the Log reduction [2, 19] was greater than 6.7 log. The Log reduction [3, 5] was 1.4 log, the Log reduction [3, 6] was greater than 6.3 log and the Log reduction [3, 7] was greater than 6.3 log. For the same compound, the Log reduction [3, 8] was greater than 6.3 log, the Log reduction [3, 9] was greater than 6.3 log and the Log reduction [3, 10] was greater than 6.3 log. The Log reduction [3, 11] was greater than 6.3 log, the Log reduction [3, 12] was greater than 6.3 log and the Log reduction [3, 13] was greater than 6.3 log. It also gave a Log reduction [3, 14] greater than 6.3 log, a Log reduction [3, 15] greater than 6.3 log and a Log reduction [3, 16] greater than 6.3 log. It also gave a Log reduction [3, 17] greater than 6.3 log, a Log reduction [3, 18] greater than 6.3 log and a Log reduction [3, 19] greater than 6.3 log. It also gave a Log reduction [4, 5] greater than 5.7 log, a Log reduction [4, 6] greater than 5.7 log and a Log reduction [4, 7] greater than 5.7 log. The Log reduction [4, 8] was greater than 5.7 log, the Log reduction [4, 9] was greater than 5.7 log and the Log reduction [4, 10] was greater than 5.7 log. The Log reduction [4, 11] was greater than 5.7 log, the Log reduction [4, 12] was greater than 5.7 log and the Log reduction [4, 13] was greater than 5.7 log. For the same compound, the Log reduction [4, 14] was greater than 5.7 log, the Log reduction [4, 15] was greater than 5.7 log and the Log reduction [4, 16] was greater than 5.7 log. It also gave a Log reduction [4, 17] greater than 5.7 log, a Log reduction [4, 18] greater than 5.7 log and a Log reduction [4, 19] greater than 5.7 log.
